For 13 molecules, IC50 results are on record in patent publication US11739098B2 (BRISTOL-MYERS SQUIBB COMPANY, priority 2017, dated 2023).

What all share (format): cell-based
One test addresses T1, human TLR8 (Homo sapiens, UniProt Q9NR97).
T1 construct: host or cells: HEK-Blue cells (HEK293-derived reporter line)
T1 sequence (Q9NR97 27-1041): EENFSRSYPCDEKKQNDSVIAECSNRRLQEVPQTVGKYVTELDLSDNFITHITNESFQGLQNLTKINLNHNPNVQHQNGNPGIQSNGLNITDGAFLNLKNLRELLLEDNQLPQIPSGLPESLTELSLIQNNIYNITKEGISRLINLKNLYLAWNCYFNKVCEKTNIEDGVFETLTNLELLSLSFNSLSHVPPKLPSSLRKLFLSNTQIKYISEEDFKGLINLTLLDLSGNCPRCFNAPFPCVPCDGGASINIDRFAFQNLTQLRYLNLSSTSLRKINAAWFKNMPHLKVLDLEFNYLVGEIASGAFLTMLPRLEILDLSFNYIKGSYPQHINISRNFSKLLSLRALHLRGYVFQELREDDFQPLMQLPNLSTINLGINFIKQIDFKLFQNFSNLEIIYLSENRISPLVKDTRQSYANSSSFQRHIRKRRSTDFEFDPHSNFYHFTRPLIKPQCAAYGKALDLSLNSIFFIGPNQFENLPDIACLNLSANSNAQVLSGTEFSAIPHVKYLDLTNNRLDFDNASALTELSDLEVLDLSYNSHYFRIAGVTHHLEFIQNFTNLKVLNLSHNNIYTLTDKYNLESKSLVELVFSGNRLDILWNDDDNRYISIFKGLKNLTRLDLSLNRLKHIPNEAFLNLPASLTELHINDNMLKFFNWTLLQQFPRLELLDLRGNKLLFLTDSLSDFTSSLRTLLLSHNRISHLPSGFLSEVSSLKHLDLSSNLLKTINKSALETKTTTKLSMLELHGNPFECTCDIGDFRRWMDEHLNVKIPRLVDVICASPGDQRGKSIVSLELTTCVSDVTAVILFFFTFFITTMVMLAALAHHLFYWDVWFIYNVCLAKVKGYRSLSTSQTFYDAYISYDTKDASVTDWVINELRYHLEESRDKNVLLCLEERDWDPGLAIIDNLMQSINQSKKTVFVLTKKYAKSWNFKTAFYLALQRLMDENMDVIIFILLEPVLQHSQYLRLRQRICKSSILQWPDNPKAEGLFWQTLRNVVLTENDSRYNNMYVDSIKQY
Kind of test: TLR8 inhibition reporter assay (HEK-Blue cells, SEAP reporter, R848 stimulation). To be noted: HEK-Blue cells overexpressing human TLR8, SEAP reporter, R848 15.9 μM. Summed up: (§1)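 Cells seeded per well (15000 TLR7, 20,000 TLR8, 25,000 TLR9); compound added over 0.05 nM–50 μM for 30 min at room temperature; agonist added (TLR7 gardiquimod 7.5 μM, TLR8 R848 15.9 μM, TLR9 ODN2006 5 nM); 22 h at 37 °C; SEAP measured; percent inhibition calculated.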

The next test concerns the target T2, human TLR9 (Homo sapiens, UniProt Q9NR96).
T2 construct: host or cells: HEK-Blue cells (HEK293-derived reporter line)
T2 sequence (Q9NR96 26-1032): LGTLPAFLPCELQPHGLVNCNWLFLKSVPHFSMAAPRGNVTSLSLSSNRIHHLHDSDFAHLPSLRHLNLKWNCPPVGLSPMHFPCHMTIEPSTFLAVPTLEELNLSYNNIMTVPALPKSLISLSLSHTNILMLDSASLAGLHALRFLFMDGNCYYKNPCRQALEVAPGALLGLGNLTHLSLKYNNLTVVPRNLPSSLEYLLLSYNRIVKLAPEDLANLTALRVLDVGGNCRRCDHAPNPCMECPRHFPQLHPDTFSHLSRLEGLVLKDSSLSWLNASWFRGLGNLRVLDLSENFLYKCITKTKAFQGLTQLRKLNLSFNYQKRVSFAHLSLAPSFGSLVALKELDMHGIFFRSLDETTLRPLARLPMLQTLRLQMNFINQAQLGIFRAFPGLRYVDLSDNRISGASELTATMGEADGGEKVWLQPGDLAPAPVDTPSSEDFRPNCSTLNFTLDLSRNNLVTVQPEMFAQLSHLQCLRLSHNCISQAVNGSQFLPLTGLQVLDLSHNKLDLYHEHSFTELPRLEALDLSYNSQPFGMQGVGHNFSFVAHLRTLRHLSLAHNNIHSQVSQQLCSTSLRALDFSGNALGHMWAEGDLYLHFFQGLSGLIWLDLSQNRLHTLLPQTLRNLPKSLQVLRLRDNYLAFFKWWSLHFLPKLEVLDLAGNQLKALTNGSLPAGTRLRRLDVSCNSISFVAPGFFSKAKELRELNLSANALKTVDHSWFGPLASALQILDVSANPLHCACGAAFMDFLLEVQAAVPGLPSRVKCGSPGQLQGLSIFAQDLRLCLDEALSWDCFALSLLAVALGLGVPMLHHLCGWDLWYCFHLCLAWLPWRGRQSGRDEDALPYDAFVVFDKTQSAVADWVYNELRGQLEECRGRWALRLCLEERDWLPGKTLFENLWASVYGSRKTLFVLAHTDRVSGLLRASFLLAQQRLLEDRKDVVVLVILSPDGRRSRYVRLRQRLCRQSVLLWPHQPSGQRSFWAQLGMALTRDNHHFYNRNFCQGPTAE
Kind of test: TLR9 inhibition reporter assay (HEK-Blue cells, SEAP reporter, ODN2006 stimulation). To be noted: HEK-Blue cells overexpressing human TLR9, SEAP reporter, ODN2006 5 nM. Put shortly: as §1

Another test has as its target T3, human TLR7 (Homo sapiens, UniProt Q9NYK1).
T3 construct: host or cells: HEK-Blue cells (HEK293-derived reporter line)
T3 sequence (Q9NYK1 27-1049): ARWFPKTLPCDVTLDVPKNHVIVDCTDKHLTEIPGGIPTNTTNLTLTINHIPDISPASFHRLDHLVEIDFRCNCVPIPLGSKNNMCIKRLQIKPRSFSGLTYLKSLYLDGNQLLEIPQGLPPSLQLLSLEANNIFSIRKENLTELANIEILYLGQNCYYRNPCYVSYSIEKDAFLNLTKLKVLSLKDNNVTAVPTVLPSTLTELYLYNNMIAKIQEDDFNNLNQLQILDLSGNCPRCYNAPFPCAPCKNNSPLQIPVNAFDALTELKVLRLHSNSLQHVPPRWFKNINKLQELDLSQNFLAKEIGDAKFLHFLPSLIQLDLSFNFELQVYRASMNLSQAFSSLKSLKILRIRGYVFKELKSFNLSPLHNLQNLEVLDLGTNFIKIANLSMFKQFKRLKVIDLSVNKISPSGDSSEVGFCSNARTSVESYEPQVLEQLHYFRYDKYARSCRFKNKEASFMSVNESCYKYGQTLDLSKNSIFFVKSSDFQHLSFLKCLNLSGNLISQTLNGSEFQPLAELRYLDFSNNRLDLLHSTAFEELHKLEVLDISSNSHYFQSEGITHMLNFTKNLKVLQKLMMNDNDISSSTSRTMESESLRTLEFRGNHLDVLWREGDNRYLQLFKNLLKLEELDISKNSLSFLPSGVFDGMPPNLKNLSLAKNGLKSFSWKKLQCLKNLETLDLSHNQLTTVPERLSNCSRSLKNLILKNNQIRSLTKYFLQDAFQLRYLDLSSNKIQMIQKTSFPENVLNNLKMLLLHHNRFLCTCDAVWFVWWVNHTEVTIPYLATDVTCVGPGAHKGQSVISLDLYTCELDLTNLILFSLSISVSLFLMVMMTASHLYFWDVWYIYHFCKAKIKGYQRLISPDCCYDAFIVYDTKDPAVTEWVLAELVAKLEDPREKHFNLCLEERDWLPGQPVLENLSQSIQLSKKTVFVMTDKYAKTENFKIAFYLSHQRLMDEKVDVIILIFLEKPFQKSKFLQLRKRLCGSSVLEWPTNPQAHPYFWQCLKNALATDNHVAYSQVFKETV
Kind of test: TLR7 inhibition reporter assay (HEK-Blue cells, SEAP reporter, gardiquimod stimulation). Conditions: HEK-Blue cells overexpressing human TLR7, SEAP reporter, gardiquimod 7.5 μM. Summed up: as §1
On the technique in general: In a reporter assay the amount or activity of a reporter protein is the signal.

SMILES strings stand for the structures.

For `Cc1nc2cc(-c3[nH]c4ccc(C5CCN(C(=O)[C@@H]6C[C@@H](O)CN6)CC5)cc4c3C(C)C)ccn2n1` [Example 540, ((2S,4R)-4-hydroxypyrrolidin-2-yl)(4-(3-isopropyl-2-(2-methyl-[1,2,4]triazolo[1,5-a]pyridin-7-yl)-1H-indol-5-yl)piperidin-1-yl) methanone], the figures for the half-inhibitory concentration (IC50) against human TLR8, on human TLR9 and against human TLR7 were 1000 to 50000 nM, 1000 to 50000 nM and < 100 nM, respectively.
Turning to `CC(C)c1c(-c2ccc3ncsc3c2)[nH]c2ccc(C3CCNCC3)cc12` [Example 9, 6-(3-isopropyl-5-(piperidin-4-yl)-1H-indol-2-yl) benzo[d]thiazole], the 50% inhibitory concentration (IC50) against human TLR8 was < 100 nM; against human TLR9, 1000 to 50000 nM; against human TLR7, < 100 nM.
For `CC(C)c1c(-c2cc(C(C)(C)O)c3nccn3c2)[nH]c2ccc(C3CCN(CC(=O)N(C)C)CC3)cc12` [Example 343, 2-(4-(2-(8-(2-hydroxypropan-2-yl)imidazo[1,2-a]pyridin-6-yl)-3-isopropyl-1H-indol-5-yl)piperidin-1-yl)-N,N-dimethylacetamide], the IC50 on human TLR8 was 100 to 1000 nM; against human TLR9, 100 to 1000 nM; against human TLR7, < 100 nM.
As to `CCc1c(-c2cccc3[nH]ncc23)[nH]c2ccc(C3CCN(CC(=O)N(C)C)CC3)cc12` [Example 389, 2-(4-(3-ethyl-2-(1H-indazol-4-yl)-1H-indol-5-yl)piperidin-1-yl)-N,N-dimethylacetamide], the half-inhibitory concentration (IC50) on human TLR8, against human TLR9 and against human TLR7 was 1000 to 50000 nM throughout.
With `CNCC(=O)N1CCC(c2ccc3[nH]c(-c4cnc5ncnn5c4)c(C(C)C)c3c2)CC1` [Example 555, 1-(4-(2-([1,2,4]triazolo [1,5-a]pyrimidin-6-yl)-3-isopropyl-1H-indol-5-yl)piperidin-1-yl)-2-(methylamino)ethan-1-one], the IC50 was 100 to 1000 nM on human TLR8, 1000 to 50000 nM against human TLR9 and < 100 nM against human TLR7.
For `COc1cc(-c2[nH]c3ccc(C4CCN(CC(=O)N(C)C)CC4)cc3c2C(C)C)cc2ncnn12` [Example 333, 2-(4-(3-isopropyl-2-(5-methoxy-[1,2,4]triazolo[1,5-a]pyridin-7-yl)-1H-indol-5-yl)piperidin-1-yl)-N,N-dimethylacetamide], in that order: < 100 nM, 1000 to 50000 nM and < 100 nM.
For `CNC(=O)CN1CCC(c2ccc3[nH]c(-c4cc(C)c5nc(C)cn5c4)c(C(C)C)c3c2)CC1` [Example 391, 2-(4-(2-(2,8-dimethylimidazo[1,2-a]pyridin-6-yl)-3-isopropyl-1H-indol-5-yl)piperidin-1-yl)-N-methylacetamide], in that order: < 100 nM, 100 to 1000 nM and < 100 nM.
For `CNCCN1CCC(c2ccc3[nH]c(-c4ccnc5[nH]ncc45)c(C(C)C)c3c2)C(F)(F)C1` (stereo not drawn) [Example 674, 2-(3,3-difluoro-4-(3-isopropyl-2-(1H-pyrazolo[3,4-b]pyridin-4-yl)-1H-indol-5-yl)piperidin-1-yl)-N-methylethan-1-amine], in that order: < 100 nM, 100 to 1000 nM and < 100 nM.
For the molecule `Cc1c(-c2ccnn3ccnc23)[nH]c2ccc(C3CCN(C4CCN(C(C)C)CC4)CC3)cc12` [Example 807, 8-(5-(1′-isopropyl-[1,4′-bipiperidin]-4-yl)-3-methyl-1H-indol-2-yl)imidazo[1,2-b]pyridazine], the half-maximal inhibitory concentration (IC50) is 1000 to 50000 nM against human TLR8, 100 to 1000 nM against human TLR9 and 1000 to 50000 nM at human TLR7.
Turning to `CCc1c(-c2cnc3ncccn23)[nH]c2ccc(C3CCNCC3)cc12` [Example 29, 3-(3-ethyl-5-(piperidin-4-yl)-1H-indol-2-yl) imidazo[1,2-a]pyrimidine], the 50% inhibitory concentration (IC50) is < 100 nM against human TLR8, 100 to 1000 nM against human TLR9 and 100 to 1000 nM at human TLR7.
Regarding `Cc1cc(-c2[nH]c3ccc(C4CCN(C(CO)CO)CC4)cc3c2C(C)C)cc2nccn12` [Example 755, 2-(4-(3-isopropyl-2-(5-methylimidazo[1,2-a]pyridin-7-yl)-1H-indol-5-yl)piperidin-1-yl)propane-1,3-diol], the 50% inhibitory concentration (IC50) was 100 to 1000 nM at human TLR8, < 100 nM on human TLR9 and 100 to 1000 nM at human TLR7.
With `Cc1cc(-c2[nH]c3ccc(C4CCN(C5CCOCC5)CC4)cc3c2C(C)C)cc2cccnc12` [Example 704, 6-(3-isopropyl-5-(1-(tetrahydro-2H-pyran-4-yl)piperidin-4-yl)-1H-indol-2-yl)-8-methylquinoline], the 50% inhibitory concentration (IC50) at human TLR8 was 100 to 1000 nM; against human TLR9, 1000 to 50000 nM; at human TLR7, < 100 nM.
The matching figures for `CCc1c(-c2ccnc3[nH]ncc23)[nH]c2ccc(C3CCN(Cc4csnn4)CC3)cc12` [Example 930, 4-((4-(3-ethyl-2-(1H-pyrazolo[3,4-b]pyridin-4-yl)-1H-indol-5-yl)piperidin-1-yl)methyl)-1,2,3-thiadiazole]: < 100 nM, 1000 to 50000 nM and 100 to 1000 nM.

The IC50 is the midpoint of a concentration-inhibition curve. Read a high IC50 as weaker potency in that assay.
